Results on 29 molecules are retold here after publication PMC12138102 (Acta Pharmaceutica Sinica. B, 2025).

For one experiment, the target named is huBuChE (Homo sapiens, UniProt P06276). Put plainly: BuChE inhibition, Ellman's assay. It counts as biochemical. The following applies: for SI: Selectivity Index, huAChE and huBuChE. (DTNB colorimetry detects thiols as they appear.)
The next experiment has as its target huAChE (Homo sapiens, UniProt P22303). Briefly: AChE inhibition, Ellman's assay. It is filed as biochemical.
In a further experiment the target is eeAChE (Electrophorus electricus, UniProt O42275). Briefly: AChE inhibition, Ellman's assay. It counts as biochemical.
A further experiment concerns the target eqBuChE (Equus caballus, UniProt P81908). Put plainly: BuChE inhibition, Ellman's assay. It is filed as biochemical, equine. The following applies: for IC50: IC50 ± SD eqBuChE; for SI: Selectivity Index, eeAChE and eqBuChE.
The test system of the next experiment is BuChE. Put plainly: Reversibility of BuChE inhibition. It counts as biochemical. The following applies: 0.1 × IC50, 120 min.
In experiment [1] the test system is APP/PS1 double-transgenic mice. Briefly: APP/PS1 mice, Morris Water Maze and tissue analyses. It counts as in vivo.
The next experiment concerns scopolamine-induced mice. Put plainly: Scopolamine-induced mice dysmnesia, step-down passive avoidance task. It is filed as in vivo, Kunming mice.
For experiment [2], the system named is AlCl3-induced zebrafish AD model. Put plainly: AlCl3-induced zebrafish AD model. It counts as in vivo. The following applies: donepezil 3.0 μg/mL.
[3] abbreviates: plasma, donepezil 2.0 mg/kg, 8e 2.6 mg/kg.

eqBuChE, sequence (P81908 whole entry): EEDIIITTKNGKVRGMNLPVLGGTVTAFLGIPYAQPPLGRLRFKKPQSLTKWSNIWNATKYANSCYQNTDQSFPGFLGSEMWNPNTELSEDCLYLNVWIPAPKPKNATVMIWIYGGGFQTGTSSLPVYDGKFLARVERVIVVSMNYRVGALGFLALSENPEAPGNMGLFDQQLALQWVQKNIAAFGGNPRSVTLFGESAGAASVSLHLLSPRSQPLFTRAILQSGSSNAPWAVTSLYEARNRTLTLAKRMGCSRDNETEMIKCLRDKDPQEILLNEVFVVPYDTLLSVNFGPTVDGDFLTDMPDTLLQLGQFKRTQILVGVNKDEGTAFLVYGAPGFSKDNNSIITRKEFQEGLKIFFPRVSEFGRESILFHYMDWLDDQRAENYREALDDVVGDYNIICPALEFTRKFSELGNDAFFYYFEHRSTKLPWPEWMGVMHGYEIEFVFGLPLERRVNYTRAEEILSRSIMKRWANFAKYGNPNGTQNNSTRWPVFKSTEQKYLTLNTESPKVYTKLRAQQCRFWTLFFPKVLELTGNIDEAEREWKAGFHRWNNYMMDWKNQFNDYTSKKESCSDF
eeAChE, sequence (O42275 24-633): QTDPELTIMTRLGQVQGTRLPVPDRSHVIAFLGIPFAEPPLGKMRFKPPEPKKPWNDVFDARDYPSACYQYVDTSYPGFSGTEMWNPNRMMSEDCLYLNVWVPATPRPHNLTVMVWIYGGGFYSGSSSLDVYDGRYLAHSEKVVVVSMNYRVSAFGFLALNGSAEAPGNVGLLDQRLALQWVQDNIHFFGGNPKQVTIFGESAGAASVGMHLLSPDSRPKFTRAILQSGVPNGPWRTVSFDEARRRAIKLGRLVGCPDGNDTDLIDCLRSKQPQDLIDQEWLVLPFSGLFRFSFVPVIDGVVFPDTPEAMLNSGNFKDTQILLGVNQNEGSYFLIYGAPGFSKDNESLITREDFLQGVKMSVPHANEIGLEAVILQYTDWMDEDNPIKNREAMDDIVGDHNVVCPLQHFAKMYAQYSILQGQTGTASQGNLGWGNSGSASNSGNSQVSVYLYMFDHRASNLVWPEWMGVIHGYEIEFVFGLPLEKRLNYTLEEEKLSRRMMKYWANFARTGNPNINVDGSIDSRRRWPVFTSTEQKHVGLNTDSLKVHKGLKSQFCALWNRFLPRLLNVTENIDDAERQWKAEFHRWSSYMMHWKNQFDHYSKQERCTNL
huBuChE, sequence (P06276 29-602): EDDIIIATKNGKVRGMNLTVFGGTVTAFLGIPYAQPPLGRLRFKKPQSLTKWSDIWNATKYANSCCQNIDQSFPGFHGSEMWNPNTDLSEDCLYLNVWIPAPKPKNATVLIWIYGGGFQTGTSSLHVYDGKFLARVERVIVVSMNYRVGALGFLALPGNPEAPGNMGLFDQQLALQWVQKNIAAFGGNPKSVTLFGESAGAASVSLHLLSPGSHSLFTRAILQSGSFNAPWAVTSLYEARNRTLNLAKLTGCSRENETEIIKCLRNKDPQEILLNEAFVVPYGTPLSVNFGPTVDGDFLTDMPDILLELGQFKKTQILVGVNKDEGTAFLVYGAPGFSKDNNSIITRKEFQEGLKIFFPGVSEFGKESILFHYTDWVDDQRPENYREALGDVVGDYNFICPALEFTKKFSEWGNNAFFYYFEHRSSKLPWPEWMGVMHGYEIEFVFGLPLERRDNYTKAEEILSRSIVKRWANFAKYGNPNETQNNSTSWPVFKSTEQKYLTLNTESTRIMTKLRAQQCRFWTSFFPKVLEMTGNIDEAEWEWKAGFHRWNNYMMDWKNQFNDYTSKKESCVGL
huAChE, sequence (P22303 32-617 isoform P22303-2 limits assumed): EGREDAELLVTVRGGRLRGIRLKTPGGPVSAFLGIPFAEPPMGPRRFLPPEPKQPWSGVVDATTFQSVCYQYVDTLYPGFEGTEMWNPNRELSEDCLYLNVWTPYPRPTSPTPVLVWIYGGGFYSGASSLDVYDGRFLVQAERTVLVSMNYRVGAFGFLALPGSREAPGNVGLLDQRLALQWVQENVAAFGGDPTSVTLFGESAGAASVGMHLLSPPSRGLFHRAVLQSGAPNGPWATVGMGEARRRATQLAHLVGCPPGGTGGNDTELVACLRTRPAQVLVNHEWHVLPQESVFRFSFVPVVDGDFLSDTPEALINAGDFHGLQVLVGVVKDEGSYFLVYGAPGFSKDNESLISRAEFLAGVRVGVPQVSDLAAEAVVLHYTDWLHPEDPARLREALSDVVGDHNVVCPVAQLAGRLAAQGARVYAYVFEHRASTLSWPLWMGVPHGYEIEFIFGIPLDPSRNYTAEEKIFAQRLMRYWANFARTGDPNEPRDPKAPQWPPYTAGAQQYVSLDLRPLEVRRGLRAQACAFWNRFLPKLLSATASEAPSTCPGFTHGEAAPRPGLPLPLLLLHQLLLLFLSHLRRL

On to `COc1cc(CCC(=O)N2CCC(Cc3ccccc3)CC2)ccc1OCCCCN1CCc2ccccc2C1` [8d], for which the half-inhibitory concentration (IC50) – broadly, the concentration needed to halve the response being measured – against huBuChE is 0.097 µM; against huAChE, 8.6 ± 0.33 µM; on eeAChE, 6.2 ± 0.12 µM; on eqBuChE it was 0.087 ± 0.002 µM. Moreover, the SI at huBuChE worked out at 89; at eqBuChE it was 71.

On to `COc1cc(CCC(=O)N2CCC(Cc3ccccc3)CC2)ccc1OCCCCN1CCC(CCCc2ccccc2)CC1` [8c], for which the IC50 against huBuChE was found to be 0.082 ± 0.007 µM; against huAChE, 6.7 ± 0.16 µM; at eeAChE, 4.2 ± 0.26 µM; against eqBuChE it was 0.063 ± 0.005 µM. The SI on huBuChE was found to be 82; at eqBuChE, 67.

On to `CCN(C)C(=O)Oc1cccc([C@H](C)N(C)C)c1` [Rivastigmine], for which the “recovery of BuChE activity / reversibility” value with BuChE is listed as “remained relatively unchanged”.

`COc1cc(C(=O)N2CCC(Cc3ccccc3)CC2)ccc1OCCCCN1CCC(CCCc2ccccc2)CC1` [7c]: the 50% inhibitory concentration (IC50) against eeAChE turned out to be 3.4 ± 0.13 µM. For the same molecule, at eqBuChE, the IC50 came out at 1.1 ± 0.06 µM and the SI was 3.1.

Consider `CCN(CCCCCOc1ccc(CCC(=O)N2CCC(Cc3ccccc3)CC2)cc1OC)Cc1ccccc1` [10c], for which the 50% inhibitory concentration (IC50) on huBuChE came to 0.11 µM; against huAChE it was 8.6 ± 0.33 µM; on eeAChE it was 6.2 ± 0.12 µM; on eqBuChE, 0.077 ± 0.002 µM. The results for the SI at huBuChE and at eqBuChE were 78 and 81, respectively.

Turning to `COc1cc(C(=O)N2CCC(Cc3ccccc3)CC2)ccc1OCCCCN1CCc2ccccc2C1` [7d], the IC50 against eeAChE amounted to 3.1 ± 0.15 µM. At eqBuChE, this molecule came in with an IC50 of 0.85 ± 0.02 µM and an SI of 3.6.

`COc1cc(C(=O)N2CCC(Cc3ccccc3)CC2)ccc1OCCCCN1CC(C)CC(C)C1` (stereo not shown) [7g]: at eeAChE, half-maximal inhibition (IC50) was put at 2.3 ± 0.12 µM. On eqBuChE, this molecule displayed an IC50 of 3.7 ± 0.24 µM and an SI of 0.6.

`CCN(CCCCCCCCCCOc1ccc(CCC(=O)N2CCC(Cc3ccccc3)CC2)cc1OC)Cc1ccccc1` [10f]: the concentration for half-maximal inhibition (IC50) at eeAChE was found to be 4.7 ± 0.28 µM; against eqBuChE, 0.59 ± 0.08 µM. Besides, the SI on eqBuChE was determined as 8.0.

`COc1cc(CCC(=O)N2CCC(Cc3ccccc3)CC2)ccc1OCCCCN1CCC(C(=O)c2ccc(F)cc2)CC1` [8j]: the half-maximal inhibitory concentration (IC50) against eeAChE is 4.9 ± 0.18 µM. On eqBuChE, this molecule showed an IC50 of 0.31 ± 0.12 µM and an SI of 16.

As for `COc1cc(CCC(=O)N2CCC(Cc3ccccc3)CC2)ccc1OC(=O)CCCCN1CCC(CCCc2ccccc2)CC1` [9c], the concentration for half-maximal inhibition (IC50) was 8.1 ± 0.43 µM against eeAChE and 0.73 ± 0.23 µM at eqBuChE. Also, the SI at eqBuChE is 11.

In the case of `COc1cc2c(cc1OC)C(=O)C(CC1CCN(Cc3ccccc3)CC1)C2` (stereo not shown) [Donepezil], in experiment [1] (ELISA, cerebral cortex), the ACh levels entry is listed as “remarkable increase”, the “Aβ1–42 levels” value is “significantly reduced”, the IL-1β levels entry is recorded as “significantly reduced” and the IL-6 levels result is reported as “significantly reduced”. Also, the TNF-α levels entry in experiment [1] (ELISA, cerebral cortex) is recorded as “significantly reduced”. For the same molecule, the “neuronal abnormalities within cerebral cortex and hippocampus” value in experiment [1] (HE staining, donepezil 2 mg/kg, 8e 2.6 mg/kg) is “marked decrease”. Besides, the escape latency entry in experiment [1] (MWM, vs model group) is “significantly decreased”. The “Aβ1–42 levels” value in experiment [1] (immunofluorescence staining, cerebral cortex, donepezil 2.0 mg/kg, 8e 2.6 mg/kg) is reported as “significant reduction”. Also, the TG levels result in experiment [1] (plasma) is reported as “significant decrease”. Besides, in experiment [1] (setting [3]), the LDL-c levels entry is “significantly reduced” and the TC levels result is on record as “significantly reduced”. In the experiment on scopolamine-induced mice (5.0 mg/kg), this molecule returned a latency time of 163.87 s and a number of errors of 0.1. Besides, in the experiment with scopolamine-induced mice (TUNEL staining, donepezil 5.0 mg/kg, 8e 6.5 mg/kg), the “neuronal apoptosis in the hippocampus” value was “significantly reduced”. The “levels of IL-1β, IL-6, and TNF-α in the cerebral cortex” value in the experiment with scopolamine-induced mice (immunohistochemistry, donepezil 5.0 mg/kg, 8e 6.5 mg/kg) is on record as “significant reduction”. Moreover, in experiment [2] (HE staining, 8e 0.1, 0.25, and 0.5 μg/mL), the “number of apoptotic cells” value was “significantly reduced”. For the same molecule, the swimming distance/swimming speed result in experiment [2] (8e 0.1 and 0.25 μg/mL) was “significantly increased”. Moreover, the reaction capacity entry in experiment [2] (8e 0.1 and 0.25 μg/mL, transition from dark to light) is on record as “significantly enhanced”.

For the molecule `COc1cc(CCC(=O)N2CCC(Cc3ccccc3)CC2)ccc1OCCCCN1CCC(c2ccccc2)CC1` [8h], the half-inhibitory concentration (IC50) against huBuChE came to 0.19 ± 0.19 µM; on huAChE it was 6.9 ± 0.14 µM; on eeAChE, 4.7 ± 0.28 µM; on eqBuChE it was 0.13 ± 0.08 µM. The SI at huBuChE and on eqBuChE was 36 throughout.

Molecule `CCN(CC)CCCCOc1ccc(CCC(=O)N2CCC(Cc3ccccc3)CC2)cc1OC` [8f] displayed an IC50 against eeAChE of 8.4 ± 0.53 µM. At eqBuChE, this molecule showed an IC50 of 0.28 ± 0.02 µM and an SI of 30.

In the case of `COc1cc(CCC(=O)N2CCC(Cc3ccccc3)CC2)ccc1OC(=O)CCCCN1CCC(Cc2ccccc2)CC1` [9a], at eeAChE, the midpoint of inhibition, the IC50, lay at 7.1 ± 0.15 µM. At eqBuChE, the half-maximal inhibitory concentration (IC50) was 0.82 ± 0.03 µM and the SI turned out to be 8.7.

Take `COc1cc(CCC(=O)N2CCC(Cc3ccccc3)CC2)ccc1OCCCCN1CCC(c2noc3ccccc23)CC1` [8k]: the IC50 was found to be 5.5 ± 0.23 µM against eeAChE and 0.25 ± 0.02 µM against eqBuChE. At eqBuChE, this molecule returned an SI of 22.

As for `CCN(CCOc1ccc(CCC(=O)N2CCC(Cc3ccccc3)CC2)cc1OC)Cc1ccccc1` [10a], the half-maximal inhibitory concentration (IC50) came out at 3.6 ± 0.02 µM on eeAChE and 0.22 ± 0.03 µM against eqBuChE. For the same molecule, the SI at eqBuChE amounted to 16.

For the molecule `COc1cc(CCC(=O)N2CCC(Cc3ccccc3)CC2)ccc1OCCCCN1CCC(Cc2ccccc2)CC1` [8a], the IC50 at huBuChE came to 0.16 ± 0.43 µM; at huAChE, 5.9 ± 0.26 µM; against eeAChE, 1.7 ± 0.01 µM; against eqBuChE it was 0.093 ± 0.005 µM. Further, the SI is on record as 37 at huBuChE and 18 on eqBuChE.

On to `CCN(CC)CCCCOc1ccc(C(=O)N2CCC(Cc3ccccc3)CC2)cc1OC` [7f], for which the IC50 against eeAChE stood at 8.6 ± 0.32 µM. In addition, on eqBuChE, the IC50 was found to be 6.4 ± 0.24 µM and the SI is given as 1.3.

`CCN(CCCCCCOc1ccc(CCC(=O)N2CCC(Cc3ccccc3)CC2)cc1OC)Cc1ccccc1` [10d] yielded an IC50 at eeAChE of 4.6 ± 0.03 µM. At eqBuChE, this molecule showed an IC50 of 0.12 ± 0.003 µM and an SI of 38.

For `CCN(CCCCOc1ccc(C(=O)N2CCC(Cc3ccccc3)CC2)cc1OC)Cc1ccccc1` [7e], the IC50 at huBuChE amounted to 0.87 ± 0.23 µM; against huAChE, 3.9 ± 0.44 µM; on eeAChE, 2.8 ± 0.13 µM; against eqBuChE, 0.47 ± 0.05 µM. The SI on huBuChE is 4.5; on eqBuChE, 6.0.

With `CCN(CCCCCCCCCOc1ccc(CCC(=O)N2CCC(Cc3ccccc3)CC2)cc1OC)Cc1ccccc1` [10e], the 50% inhibitory concentration (IC50) against eeAChE was 8.4 ± 0.53 µM. At eqBuChE, this molecule yielded a half-inhibitory concentration (IC50) of 0.28 ± 0.02 µM and an SI of 30.

Take `COc1cc(C(=O)N2CCC(Cc3ccccc3)CC2)ccc1OCCCCN1CCC(Cc2ccccc2)CC1` [7a]: the 50% inhibitory concentration (IC50) on eeAChE amounted to 5.9 ± 0.36 µM; at eqBuChE, 0.66 ± 0.03 µM. In addition, at eqBuChE, the SI came out at 8.9.

As for `CCN(CCCCOc1c(OC)cc(C(=O)NC2CCN(Cc3ccccc3)CC2)cc1OC)Cc1ccccc1` [7i], the midpoint of inhibition against eeAChE, the IC50, lay at 5.7 ± 0.03 µM. At eqBuChE, this molecule registered a half-maximal inhibitory concentration (IC50) of 2.6 ± 0.12 µM and an SI of 2.2.

At eeAChE, `COc1cc(CCC(=O)N2CCC(Cc3ccccc3)CC2)ccc1OCCCCN1CC(C)CC(C)C1` (stereo not shown) [8g] returned an IC50 of 6.5 ± 0.33 µM. For the same molecule, at eqBuChE, the half-inhibitory concentration (IC50) was 0.75 ± 0.02 µM and the SI came out at 8.7.

The molecule `COc1cc(CCC(=O)N2CCC(Cc3ccccc3)CC2)ccc1OCCCCN1CCN(Cc2ccccc2)CC1` [8b] returned an IC50 against eeAChE of 5.8 ± 0.35 µM. Further, at eqBuChE, half-maximal inhibition (IC50) required 3.3 ± 0.13 µM and the SI stood at 1.8.

For the molecule `COc1cc(C(=O)N2CCC(Cc3ccccc3)CC2)ccc1OCCCCN1CCN(Cc2ccccc2)CC1` [7b], the 50% inhibitory concentration (IC50) against eeAChE is 7.9 ± 0.25 µM; against eqBuChE, 3.1 ± 0.12 µM. At eqBuChE, this molecule came in with an SI of 2.5.

In the case of `COc1cc(CCC(=O)N2CCC(Cc3ccccc3)CC2)ccc1OC(=O)CCCCN1CCN(Cc2ccccc2)CC1` [9b], the IC50 against eeAChE stood at 1.9 ± 0.11 µM. At eqBuChE, this molecule showed an IC50 of 1.7 ± 0.06 µM and an SI of 1.1.

Take `CCN(CCCCOc1c(OC)cc(C(=O)N2CCN(c3ccc(F)cc3)CC2)cc1OC)Cc1ccccc1` [7j]: the half-maximal inhibitory concentration (IC50) at eeAChE was 6.9 ± 0.04 µM; against eqBuChE it was 6.3 ± 0.32 µM. Besides, the SI on eqBuChE is given as 1.1.

As for `CCN(CCCOc1ccc(CCC(=O)N2CCC(Cc3ccccc3)CC2)cc1OC)Cc1ccccc1` [10b], the IC50 on huBuChE stood at 0.091 ± 0.008 µM; at huAChE it was 5.9 ± 0.26 µM; against eeAChE it was 8.7 ± 0.01 µM; at eqBuChE, 0.068 ± 0.005 µM. Besides, the results for the SI at huBuChE and on eqBuChE were 65 and 128, respectively.
